{"source": "paper PMC4121658", "about": "(Anesthesiology, 2014)", "key": {"[1]": {"tested_on": "rats", "settings": "larger number of Sprague Dawley rats; cited from earlier work"}, "[2]": {"tested_on": "rats", "test": "Lethality after intravenous bolus injection", "assay_type": "in vivo, Sprague-Dawley rats", "settings": "for rats died: intravenous bolus; for Therapeutic Index: LD50/Hypnotic ED50, rats"}, "[3]": {"test": "Lethality after intravenous bolus injection", "assay_type": "in vivo, Sprague-Dawley rats", "settings": "Sprague-Dawley, rat, in vivo, iv"}, "[4]": {"molecular_target": "α1(L264T)β1γ2L GABAA receptors (Homo sapiens, UniProt P14867+P18505, L291T)", "sequence (P14867 28-456 L291T)": "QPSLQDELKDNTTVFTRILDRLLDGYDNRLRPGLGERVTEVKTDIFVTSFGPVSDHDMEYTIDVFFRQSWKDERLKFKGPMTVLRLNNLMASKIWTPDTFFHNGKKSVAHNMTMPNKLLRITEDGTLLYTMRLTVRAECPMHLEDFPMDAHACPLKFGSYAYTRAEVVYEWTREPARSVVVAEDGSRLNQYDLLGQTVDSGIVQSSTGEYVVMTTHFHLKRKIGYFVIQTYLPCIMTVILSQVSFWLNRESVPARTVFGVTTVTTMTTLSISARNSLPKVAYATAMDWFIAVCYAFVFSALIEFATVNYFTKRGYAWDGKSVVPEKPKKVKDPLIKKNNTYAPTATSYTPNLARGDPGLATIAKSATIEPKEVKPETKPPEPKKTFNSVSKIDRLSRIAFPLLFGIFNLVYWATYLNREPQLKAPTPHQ", "sequence (P18505 26-474)": "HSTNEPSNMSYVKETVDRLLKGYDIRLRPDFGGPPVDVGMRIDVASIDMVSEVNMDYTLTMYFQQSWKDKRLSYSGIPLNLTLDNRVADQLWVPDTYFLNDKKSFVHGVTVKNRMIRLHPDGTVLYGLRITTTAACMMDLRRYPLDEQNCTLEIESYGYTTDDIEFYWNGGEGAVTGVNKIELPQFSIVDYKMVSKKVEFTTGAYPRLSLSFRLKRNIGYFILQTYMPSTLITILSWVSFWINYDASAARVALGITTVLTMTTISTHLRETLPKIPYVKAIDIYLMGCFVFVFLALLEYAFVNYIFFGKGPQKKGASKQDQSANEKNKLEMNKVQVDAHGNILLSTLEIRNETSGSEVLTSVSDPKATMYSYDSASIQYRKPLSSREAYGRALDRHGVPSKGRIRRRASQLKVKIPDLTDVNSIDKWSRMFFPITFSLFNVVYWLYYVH", "sequence (P18507 40-475 partner)": "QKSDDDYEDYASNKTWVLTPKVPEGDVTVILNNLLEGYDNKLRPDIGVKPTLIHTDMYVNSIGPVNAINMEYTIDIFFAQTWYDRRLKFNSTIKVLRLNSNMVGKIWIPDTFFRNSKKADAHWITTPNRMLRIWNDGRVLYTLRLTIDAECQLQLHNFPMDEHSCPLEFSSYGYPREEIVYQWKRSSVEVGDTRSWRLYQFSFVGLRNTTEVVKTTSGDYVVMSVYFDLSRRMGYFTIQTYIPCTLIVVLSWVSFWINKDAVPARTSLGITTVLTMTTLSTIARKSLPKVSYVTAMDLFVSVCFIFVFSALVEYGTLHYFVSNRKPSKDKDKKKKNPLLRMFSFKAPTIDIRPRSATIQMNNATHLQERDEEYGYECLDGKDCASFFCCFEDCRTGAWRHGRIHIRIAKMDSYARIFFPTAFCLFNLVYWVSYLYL", "assay_type": "cell-based", "settings": "for Surge current amplitude, of the directly activated peak current: 1000 μM drug, upon washout, α1(L264T)β1γ2L"}, "[5]": {"molecular_target": "α1(L264T)β3γ2L GABAA receptors (Homo sapiens, UniProt P14867+P28472, L291T)", "sequence (P14867 28-456 L291T)": "as the sequence (P14867 28-456 L291T) above", "sequence (P28472 26-473)": "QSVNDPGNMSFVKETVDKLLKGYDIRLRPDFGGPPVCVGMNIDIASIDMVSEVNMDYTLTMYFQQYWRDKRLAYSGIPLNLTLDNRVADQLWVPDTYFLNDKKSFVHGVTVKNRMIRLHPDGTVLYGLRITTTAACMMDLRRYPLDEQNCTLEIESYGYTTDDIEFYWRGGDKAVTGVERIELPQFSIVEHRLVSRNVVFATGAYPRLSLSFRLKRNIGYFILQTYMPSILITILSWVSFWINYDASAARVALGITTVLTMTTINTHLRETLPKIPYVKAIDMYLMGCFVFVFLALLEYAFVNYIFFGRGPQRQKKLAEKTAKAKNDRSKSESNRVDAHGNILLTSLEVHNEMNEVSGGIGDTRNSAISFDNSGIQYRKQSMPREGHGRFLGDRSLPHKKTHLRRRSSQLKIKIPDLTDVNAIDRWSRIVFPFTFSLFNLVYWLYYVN", "sequence (P18507 40-475 partner)": "as the sequence (P18507 40-475 partner) above", "test": "cell-based", "assay_type": "cell-based", "settings": "for Surge current amplitude, of the directly activated peak current: 1000 μM drug, upon washout, α1(L264T)β3γ2L; for Subunit Selectivity Ratio: EC50 β1 subunit/EC50 β3 subunit, ± SD by error propagation"}, "[6]": {"tested_on": "adrenocortical function", "test": "ACTH1–24 stimulation test, in vivo adrenocortical inhibitory potency", "parameters": "species or system Sprague-Dawley rats", "settings": "Adrenocortical ID50/Hypnotic ED50, rats"}}}
{"smiles": "CCOC(=O)c1cncn1[C@H](C)c1ccccc1", "note": "[R-etomidate, R-ethyl 1-(1-phenylethyl)-1H-imidazole-5-carboxylate, reference compound]", "values": [{"measurement": "LD50, previously reported value", "setting": "[1]", "value": 20.4, "unit": "mg/kg"}, {"measurement": "rats died", "setting": "[2]; 20 mg/kg dose", "value": "1/2"}, {"measurement": "LD50", "setting": "[3]", "value": 15, "unit": "mg/kg"}, {"measurement": "LD50", "setting": "[3]; 20 mg/kg", "value": 20, "unit": "mg/kg"}]}
{"smiles": "CCOC(=O)c1cncn1[C@@H](C)c1ccccc1", "note": "[S-etomidate, S-ethyl 1-(1-phenylethyl)-1H-imidazole-5-carboxylate, reference compound]", "values": [{"measurement": "rats died", "setting": "[2]; 30 mg/kg dose", "value": "3/3"}, {"measurement": "LD50", "setting": "[3]", "value": 25, "unit": "mg/kg"}]}
{"smiles": "CCOC(=O)c1cncn1C1(c2ccccc2)CC1", "note": "[cyclopropyl etomidate, ethyl 1-(1-phenylcyclopropyl)-1H-imidazole-5-carboxylate]", "values": [{"measurement": "rats died", "setting": "[2]; 50 mg/kg dose", "value": "2/4"}, {"measurement": "Therapeutic Index", "setting": "[2]", "value": 10}, {"measurement": "LD50", "setting": "[3]", "value": 50, "unit": "mg/kg"}, {"measurement": "EC50", "setting": "[4]", "value": "1590 ± 140", "unit": "µM"}, {"measurement": "Surge current amplitude, of the directly activated peak current", "setting": "[4]", "value": "73.0 ± 38.5", "unit": "%"}, {"measurement": "EC50", "setting": "[5]", "value": "67.6 ± 8.1", "unit": "µM"}, {"measurement": "Surge current amplitude, of the directly activated peak current", "setting": "[5]", "value": "61.5 ± 6.9", "unit": "%"}, {"measurement": "Subunit Selectivity Ratio", "setting": "[5]", "value": "23.5 ± 3.5"}, {"measurement": "Adrenocortical Toxicity Index", "setting": "[6]", "value": "0.38 ± 0.08"}]}
{"smiles": "CCOC(=O)c1cncn1Cc1ccccc1", "note": "[dihydrogen etomidate, ethyl 1-benzyl-1H-imidazole-5-carboxylate]", "values": [{"measurement": "rats died", "setting": "[2]; 50 mg/kg dose", "value": "3/3"}, {"measurement": "Therapeutic Index", "setting": "[2]", "value": 8}, {"measurement": "LD50", "setting": "[3]", "value": 40, "unit": "mg/kg"}, {"measurement": "EC50", "setting": "[4]", "value": "400 ± 28", "unit": "µM"}, {"measurement": "Surge current amplitude, of the directly activated peak current", "setting": "[4]", "value": "3 ± 2", "unit": "%"}, {"measurement": "EC50", "setting": "[5]", "value": "161 ± 13", "unit": "µM"}, {"measurement": "Surge current amplitude, of the directly activated peak current", "setting": "[5]", "value": "3 ± 2", "unit": "%"}, {"measurement": "Subunit Selectivity Ratio", "setting": "[5]", "value": "2.48 ± 0.27"}, {"measurement": "Adrenocortical Toxicity Index", "setting": "[6]", "value": "0.52 ± 0.12"}]}
{"smiles": "CC(C)c1cccc(C(C)C)c1O", "note": "[propofol, reference compound]", "values": [{"measurement": "EC50", "setting": "[5]", "value": "7.58 ± 0.83", "unit": "µM"}]}
